# Measurements published in patent publication US10357492B2, “Levosimendan for use in the treatment of motor neuron diseases (E.G. ALS)” (Orion Corporation, priority 2014, dated 2019).
# Columns and labels:
# [1] = test system: Antibody Induced Myasthenia Gravis Model in Female Lewis Rats; assay: accelerated rotating rod test (Rotarod) in antibody induced myasthenia gravis model; assay type: in vivo; conditions: single oral dosage on day 2 (48 h after antibody); levosimendan 0.25 mg/kg, active metabolite (II) 0.025 mg/kg; measured 0.5 h, 1 h, 2 h after treatment; FIG. 1
# Description: (§1) The effects of levosimendan and its active metabolite (II) on skeletal muscle weakness were studied in an experimental model of Myasthenia Gravis (Russell A J et al., Nat Med 18 (3), 2012, 452-5). Myasthenia Gravis was induced in female Lewis rats by injecting 500 μg/kg of nAChRα1/3/5 antibody (SC-58604, Santa Cruz Biotechnology) intraperitoneally on day 0. Animals with 40-70% drop in muscle strength from baseline at 48 h after administration of the antibody were randomized into treatment groups: 1) Vehicle control (n=6) (0.5% Methocel 5 ml/kg orally), 2) Levosimendan (n=6) (0.25 mg/kg orally), 3) Active metabolite (II) (n=6) (0.025 mg/kg orally).
# Coordination, balance, and motor skill acquisition were tested using an accelerated rotating rod test (Rotarod, Ugo Basile, Comerio, Italy). Rats were placed on a rod that accelerated smoothly from 4 to 40 rpm over a period of 5 min. The length of time that each animal was able to stay on the rod was recorded. Three consecutive measurements were performed. Rats were trained for the test four times one day before and twice on the day of antibody injection. Effects of different drug treatments on Rotarod response were measured 0.5 h, 1 h, and 2 h after oral treatment on day 2, i.e. 48 hours after the induction of Myasthenia Gravis.
# [2] = test system: Antibody Induced Myasthenia Gravis Model in Female Lewis Rats; assay: treadmill exercise capacity test in antibody induced myasthenia gravis model; assay type: in vivo; conditions: 2 h post-dosing of repeated oral dosage on day 3 (72 h after antibody); levosimendan 0.25 mg/kg, active metabolite (II) 0.025 mg/kg; FIG. 2
# Description: as §1
# Exercise capacity measurements were performed with airtight treadmill (Accupacer treadmill, Accuscan Instruments, USA) connected to a respiratory gas analysing system. Rehearsals and exercise capacity measurements were started with familiarising the rats with the treadmill chambers for 15 minutes (restmill). The exercise program consisted of 15 min running at 10 m/min until the rat was incapable to keep up the speed despite of electric shock motivation. Rats were trained for the test three times one day before and twice on the day of antibody injection. Effects of different drug treatments on treadmill responses were measured 1 h and 2 h after oral treatment on day 3 (72 h after induction of Myasthenia Gravis).
# [3] = pharmacokinetics (half-life); conditions: rat, in vivo; "in rats" printed for the active metabolite (II) only; read-out: t½ (converted)
Structure (SMILES),effect on muscle function in Rotarod test (time able to stay on the rotating rod) [1],effect on skeletal muscle function in treadmill test (exercise duration) [2],half-life [3] [h]
"CC(=O)Nc1ccc(C2=NNC(=O)C[C@H]2C)cc1 [active metabolite (II), (R)—N-[4-(1,4,5,6-tetrahydro-4-methyl-6-oxo-3-pyridazinyl)phenyl]-acetamide]",acute and transient improvement in muscle function,positive effect,5
"CC1CC(=O)NN=C1c1ccc(NN=C(C#N)C#N)cc1 (single isomer, unassigned) [Levosimendan, [[4-(1,4,5,6-tetrahydro-4-methyl-6-oxo-3-pyridazinyl)phenyl]hydrazono]propanedinitrile]",acute and transient improvement in muscle function,positive effect,0.7
